The values that follow come from US5883079A, “Method for inhibiting H. pylori infection in mammalian tissue” (Neose Technologies, Inc., priority 1998, dated 1999).

Several values for one entry are separate records, joined by “and”; a condition that tells them apart may be missing. Equal entries are not always repeated. Entries after “also recorded” stand apart in the source; their conditions may differ.

Test [1] concerns H. pylori binding to HuTu-80 cell monolayer. Nature of the test: H. pylori binding inhibition to HuTu-80 cell monolayers (microtiter, urease readout). It counts as cell-based, human (HuTu-80); H. pylori. The following applies: for IC50: Homo sapiens, HuTu80; for activity in inhibiting binding of H. pylori cells, in vitro: in words. The protocol:
The cultures were maintained in Basal medium Eagle containing 10% fetal calf serum in T-75 flasks, at 37° C. and a 5% CO2 atmosphere. Cells were harvested by trypsin/EDTA release and plated on 96-well flat bottom microtiter plates. The microtiter plates were incubated for 2-3 days until the monolayers grew to confluence. Prior to binding inhibition tests, the monolayer was washed with Hanks Balanced Salt solution (HBSS) containing Ca^+2 and Mg^+2, 0.1% BSA, 50 mM HEPES, 0.01 phenol red or HBHPR.
H. pylori bacteria isolates were obtained from B. Marshall (from the University of Virginia) and grown on sheep blood agar, collected at 48 h, washed and suspended in a binding buffer of HBSS+0.1% bovine serum albumin+50 mM HEPES buffer+0.01% phenol red or HBHPR.
The same concentration of bacteria and test compound were combined for 10 minutes, then transferred onto the monolayer. Binding was allowed to occur for 20 min at room temperature under mild agitation. The unbound bacteria was washed away with 1 wash of HBHPR, then 2 washes of the same buffer without HEPES buffer (HBPR).
The presence of bound bacteria is indicated by the presence of bacterial urease which generates NH3, which raises the pH and changes the color to purple, near at OD595.
IC50 in mg/ml was determined for each compound tested. The test data is reported below in Table 1:
IC50 S were determined using the HuTu-80 cell line monolayers.

The test system of test [2] is H. pylori binding to an erythrocyte receptor. The following applies: cited from earlier work; for hemagglutination inhibition (in words): vs NeuAc(2→6)-lactose / NeuAc(2→3)-lactose.
Test [3] has as its system Helicobacter pylori. Nature of the test: Effectiveness at inhibiting Helicobacter pylori when treating mammals, compared with fetuin. The following applies: vs fetuin. On the set-up: species or system mammals; H. pylori.
The test system of test [4] is H. pylori. Nature of the test: In vivo animal test: H. pylori colonization in gnotobiotic piglets. On the set-up: bacterial colonies, colony forming units/gram of gastric epithelium, Experiment A / bacterial colonies, colony forming units/gram of gastric epithelium, Experiment B / bacterial colonies, colony forming units/gram of gastric epithelium, mean ± SD: scale not given here. The protocol: Gnotobiotic derived piglets (delivered by cesarean section and housed in a germ-free environment) were orally treated with 100 mg of 3'sialyl lactose in 5.0 ml of water.
Six day old gnotobiotic piglets were orally treated with seven doses of 100 mg each of 3' sialyl lactose, at about 8 hour intervals. As a control, the piglets were administered water. The third administration of 3' sialyl lactose and control was accompanied with 2×10^9 live H. pylori. Two piglets were administered 3'sialyl lactose and 2 piglets were administered the control.
Twenty one day old gnotobiotic piglets were orally treated with seven doses of 100 mg each of 3' sialyl lactose, at about 8 hour intervals. As a control, the piglets were administered water. The third administration of 3' sialyl lactose and control was accompanied with 4×10^9 live H. pylori. Four piglets were administered 3'sialyl lactose and 2 piglets were administered the control.
The piglets were evaluated by determining bacterial colonies in blood-agar as colony forming units/gram of gastric epithelium (CFU/g). Gastric epithelium homogenates were plated on agar in serial 1:10 dilutions and bacterial colonies were counted on the plates, with 20-200 colonies/plate after 5 days.

Test [5] relates to H. pylori. The following applies: in words; cited from earlier work.
The conditions of test [6]: in words; cited from earlier work.
The subject of test [7] is H. pylori. The following applies: material treated with neuraminidase; cited from earlier work.
Another test deals with Y-1 mouse adrenal cells. The following applies: in words; cited from earlier work.
In test [8] the test system is Helicobacter pylori. The following applies: in words; cited from earlier work.

Usually IC50 stands for the point on the concentration scale where inhibition reaches its midpoint. With `CC(=O)N[C@H]1[C@H]([C@H](O)[C@H](O)CO)O[C@@](O[C@H]2[C@@H](O)[C@@H](CO)O[C@@H](O[C@H]3[C@H](O)[C@@H](O)C(O)O[C@@H]3CO)[C@@H]2O)(C(=O)O)C[C@@H]1O` (stereo partly drawn) [3' sialyl lactose, N-acetylneuraminyl-α(2→3)-Gal β1→4 Glc], in test [1], the IC50 turned out to be 6 mM and the “activity in inhibiting binding of H. pylori cells, in vitro” value is on record as “surprisingly strongly inhibits H. pylori”. Also, the “hemagglutination inhibition (in words)” value in [2] is on record as “preferentially inhibited”. For the same molecule, in the test on Helicobacter pylori [3], the “times more effective at inhibiting Helicobacter pylori than fetuin” value is “more than 6.41 times”. For the same molecule, the “bacterial colonies, colony forming units/gram of gastric epithelium, mean ± SD” value with H. pylori [4] (Experiments A and B together) was determined as 6.9 ± 5.9 CFU/g. Further, the “H. pylori binding inhibition in mammals” value with H. pylori [4] (in words, validated through in vivo mammalian test data) is listed as “surprisingly effective inhibitor”. Moreover, the “bacterial colonies, colony forming units/gram of gastric epithelium, Experiment A” value in the test on H. pylori [4] (six day old piglets, oral, seven doses of 100 mg, 8 hour intervals, 2×10^9 live H. pylori, individual animals) was 5.44 CFU/g and 0 CFU/g. Also, the “bacterial colonies, colony forming units/gram of gastric epithelium, Experiment B” value with H. pylori [4] (twenty one day old piglets, oral, seven doses of 100 mg, 8 hour intervals, 4×10^9 live H. pylori, individual animals) was 4.46 CFU/g and 25.5 CFU/g and 3.71 CFU/g and 2.48 CFU/g.

Turning to `CC(=O)N[C@H]1[C@H]([C@H](O)[C@H](O)CO)O[C@@](OC[C@H]2O[C@@H](O[C@H]3[C@H](O)[C@@H](O)C(O)O[C@@H]3CO)[C@H](O)[C@@H](O)[C@H]2O)(C(=O)O)C[C@@H]1O` (stereo partly drawn) [6' sialyl lactose, N-acetylneuraminyl-α(2→6)-Gal β1→4 Glc, reference compound], the IC50 in [1] was above 10 mM.

Turning to `OC[C@H]1O[C@@H](O[C@H]2[C@H](O)[C@@H](O)C(O)O[C@@H]2CO)[C@H](O)[C@@H](O)[C@H]1O` (stereo partly drawn) [lactose, reference compound], the IC50 in [1] was above 10 mM.

For the molecule “#3: fraction # 3 corresponds with pure fetuin”, the “IC50, Expt C” value in test [1] (HuTu-80, fetuin fraction, Expt C) is 1300 µg/mL.

Turning to “Colloidal bismuth subcitrate [Colloidal bismuth subcitrate (CBS)]”, in the test with H. pylori [5], the “eradication of H. pylori” value was “ability to eradicate H. pylori” and the “relapse rates after cessation of therapy” value is “lower relapse rates”. The “effectiveness as a histamine H2 antagonist” value in test [6] is “effective as a histamine H2 antagonist”.

Take “N-acetylneuraminyllactose [reference compound]”: in the test with H. pylori [7], the “decrease in MFI upon neuraminidase treatment” value (from here on “decrease”) is on record as 16.8%.

For asialofetuin: asialofetuin, the “decrease” value with H. pylori [7] is listed as 8.6%.

On to “fetuin: Sialoprotein which contains the NeuAc(2→3)Gal isomer of NeuAc-lactose”, for which the “decrease” value in the test on H. pylori [7] was 29.8%. Moreover, the “activity in inhibiting binding of H. pylori cells, in vitro” value in test [1] is listed as “minimal activity”. Moreover, in [2] (hemagglutination inhibition), the “concentration needed to produce 100% HAI” value is 0.500 mg/mL, the “times as effective as bovine NeuAc-lactose” value was 0.156 times and the “times as effective as α2-Macroglobulin” value is “about 2 times”. For the same molecule, in [2], the “hemagglutination inhibition (in words)” value was “also inhibited H. pylori binding, but at higher concentrations”. Besides, the “adherence to Y-1 cells” value in the test on Y-1 mouse adrenal cells is given as “blocked”.

On to gangliotetraosylceramide, for which the “recognition by H. pylori” value in the test on Helicobacter pylori [8] is listed as “specifically recognizes”.

With gangliotriaosylceramide, the “recognition by H. pylori” value in the test on Helicobacter pylori [8] is listed as “specifically recognizes”.

Regarding phosphatidylethanolamine, the “recognition by H. pylori” value with Helicobacter pylori [8] is recorded as “receptor; also recorded: specifically recognizes”.

For the molecule “α2 -Macroglobulin: Sialoprotein which contains the NeuAc(2→3)Gal isomer of NeuAc-lactose”, the “concentration needed to produce 100% HAI” value in test [2] (hemagglutination inhibition) was 1.000 mg/mL. The “hemagglutination inhibition (in words)” value in test [2] is listed as “also inhibited H. pylori binding, but at higher concentrations”.

B1: Glycophorin A: Sialoprotein which contains the NeuAc(2→3)Gal isomer of NeuAc-lactose (protein, UniProt P02724 20-150, looked up)
Glycophorin-A: LSTTEVAMHTSTSSSVTKSYISSQTNDTHKRDTYAATPRAHEVSEISVRTVYPPEEETGERVQLAHHFSEPEITLIIFGVMAGVIGTILLISYGIRRLIKKSPSDVKPLPSPDTDVPLSSVEIENPETSDQ
Turning to B1, the “concentration needed to produce 100% HAI” value in test [2] (hemagglutination inhibition) was 0.250 mg/mL. The “hemagglutination inhibition (in words)” value in [2] is “also inhibited H. pylori binding, but at higher concentrations”.
